Reference: patent US9096543B2, “Nuclear transport modulators and uses thereof” (Karyopharm Therapeutics Inc., priority 2012, dated 2015)

Legend:
CRM1 = target: T1, CRM1 (Homo sapiens, UniProt O14980); experiment: RevGFP assay: inhibition of CRM1 mediated nuclear export; format: cell-based; conditions: U2OS-RevGFP cells, ~1 hr with compound; read-out: Rev Export [IC50]
T1 construct: endogenous in cells; host or cells: U2OS-RevGFP cells
Protocol: The inhibition of CRM1 mediated nuclear export by compounds of the invention was determined. The inhibitory activity of compounds for the CRM1 protein was determined in the RevGFP assay.
Experimental protocol: Rev is a protein from human immunodeficiency virus type 1 (HIV-1) and contains a nuclear export signal (NES) in its C-terminal domain and a nuclear localization signal (NLS) in its N-terminal domain. Nuclear export of Rev protein is dependent on the classical NES/CRM1 pathway (Neville et al, 1997, Kau et al, 2003). Nuclear accumulation of Rev is observed in cells treated with specific inhibitors of CRM1, such as LMB (Kau et al, 2003). In this assay, U2OS-RevGFP cells are seeded onto clear-bottom, black, 384-well plates the day before the experiment. Compounds are serially diluted 1:2 starting from 40 μM in a separate 384-well plate in DMEM, and then transferred onto cells. Cells are incubated with compound for ˜1 hr before fixation with 3.7% formaldehyde and nuclei staining with Hoechst 33258. The amount of GFP in cell nuclei was measured and compound IC50s were determined (Kau et al, 2003).

[1] = MTT Cell Proliferation Assay (CellTiter 96 AQueous One Solution, MTS); format: cell-based; conditions: human; 72 h treatment; cell line not given; read-out: Cytotoxicity [IC50]
Description: The CellTiter 96® AQueous One Solution cell proliferation assay (Promega) was used on MM1.S, Jurkat and HCT-116 cells to study the cytotoxic and cytostatic properties of the compounds. The assay is based on the cleavage of the tetrazolium salt, MTS, in the presence of an electron-coupling reagent PES (phenazine ethosulfate). The MTS tetrazolium compound is bioreduced by cells into a colored formazan product that is soluble in tissue culture medium. This conversion is presumably accomplished by NADPH or NADH produced by dehydrogenase enzymes in metabolically active cells. Assays are performed by adding a small amount of the CellTiter 96® AQueous One solution reagent directly to culture wells, incubating for 1-4 hours and then recording the absorbance at 490 nm with a 96-well plate reader. […] The cells were seeded at 5×10^3 to 1.5×10^4 cells (depending on cell type) in each well of 96-well plate in 100 μL of fresh culture medium and adherent cells were allowed to attach for overnight. The stock solutions of the compounds were diluted in cell culture medium to obtain eight concentrations of each drug, ranging from 1 nM to 30 μM and DMSO at less than 1% v/v was used as a negative control. After 72 h of treatment 20 μl of CellTiter 96® AQueous reagent was added into each well of the 96-well assay plates and the plate was incubate at 37° C. for 1-4 hours in a humidified, 5% CO2 atmosphere. Then the absorbance of each well was recorded at 490 nm by using a 96-well plate reader. In most cases the assay was performed in triplicates and the results were presented as half maximal inhibitory concentration (IC50) described below. Optical density versus compound concentration was plotted and analyzed using non linear regression equations (Excel Fit) and the IC50 for each compound was calculated.

[2] = Pharmacokinetics (plasma AUC) in mice; format: in vivo; conditions: mouse, 10 mg/kg po
Protocol: Blood was collected from mice (N=3) to contribute to the total of 10 time points (pre-dose, 5 min, 15 min, 30 min, 1 hour, 2 hours, 4 hours, 8 hours, 12 hours and 24 hours post dose). Mice were bled on a rotating basis, each mouse contributing 3 time points to the blood collection. At the designated time points, animals were anaesthetized under isoflurane, and approximately 110 μL of blood per time point was collected via retro-orbital puncture into pre-cooled K2EDTA (anti-coagulant) tubes. Blood samples were put on wet ice and centrifuged (2000 g, 5 min at 4° C.) to obtain plasma within 30 minutes of sample collection. All samples were stored frozen at approximately −80° C. until analysis. Prior to analysis, samples were mixed with internal standard (dexamethasone) in acetonitrile, vortexed, centrifuged, and supernatant was injected for analysis. Concentration of compounds in plasma was determined using LC-MS-MS instrumentation (API 4000, Triple Quadruple with electrospray ionization; Acuity Ultra Performance Liquid Chromatography column C18, with MeOH and formic acid as organic solvents). PK parameters including but not limited to Tmax, Cmax, t1/2, AUClast, AUCinf were calculated using WinNonlin Professional 6.2 software package, non-compartmental pharmacokinetic model NCA200.

[3] = Pharmacokinetics (plasma AUC) in rats; format: in vivo; conditions: rat, 10 mg/kg po
[4] = Brain to plasma ratio (B:P) in rats; format: in vivo; conditions: 10 mg/kg po
Protocol: Brain tissue following collection was rinsed with cold saline, dried on filter paper, weighed and snap-frozen by placing on dry ice. All samples were stored frozen at approximately −80° C. until analysis. […] Plasma samples were treated with the identical method (except homogenization step) and concentration of compound in either matrix was calculated based on the generated standard curves.

IMQ-induced psoriasis = experiment: Imiquimod (IMQ)-induced dermal inflammation/psoriasis model (Study 2); format: in vivo, BALB/c mice; conditions: Compound 2 2.5 mg/kg sc, cyclophosphamide 10 mg/kg oral
Protocol: Forty (40) male BALB/c mice (Biological E Limited, Hyderabad (CPCSEA registration number: 36/99/CPCSEA)) were divided into four (4) groups consisting of ten (10) mice each. Animals were randomized based on their body weight. The groups were designated as Group-I (Nave), Group-II (IMQ; vehicle (PEG 400 and HPBCD)), Group-III (IMQ; Compound 2 (2.5 mg/kg)) and […] (IMQ; cyclophosphamide (10 mg/kg)).
A small area on the dorsum of each mouse was shaved, ensuring that these areas were of equal size/area. Psoriasis was induced in Groups II to IV by topical application of 50 mg of IMQ cream daily from Day 1 to Day 6 on the dorsum of the animals. On Day 1 and Day 2 of the study, four hours after topical application of IMQ, Compound 2 or positive control (cyclophosphamide) or vehicle were administered to animals in pertinent groups. Of note, animals in Group II and Group III were subjected to subcutaneous injections, whereas animals in Group IV received oral administration. The Compound 2, vehicle and cyclophosphamide treatment was terminated on Day 2. These groups of animals were maintained on daily IMQ treatments until Day 6. On Day 7, the psoriasis-induced animals were re-randomized into 3 groups consisting of 10 animals each based on Cumulative Disease Activity Index (CDAI). From Day 7 to Day 9, animals received vehicle or positive control or Compound 2. Of note, on these days animals were not treated with IMQ. From Day 10 to Day 14, the animals were treated alternatively with IMQ (Days 10, 12 and 14), or vehicle, positive control or Compound 2 (Days 11, 13).
All animals were observed daily for a period of […] for gross observations, body weight and feed and water intake. On Days 1 and 2, scorings of erythema, scaling, folding and thickening of skin were recorded 2 hours after administration of vehicle/positive control/test compounds, and on Days 3 to 14 scorings were recorded 4 hours after IMQ application, or administration of positive control, vehicle or Compound 2.
Vehicle was prepared by dissolving 40 mg of HPBCD in 70.0 mL of distilled water. Compound 2 was prepared by dissolving 3.59 mg in 0.5% PVP and 0.5% Pluronic. Cyclophosphamide was prepared by dissolving 500 mg of CMC in 100 mL distilled water.
The experimental results shown in Table 10 are expressed as mean±SEM. Data was assessed using one-way ANOVA, and post hoc analysis was performed using Dunnett's test.

A549 xenograft tumors = experiment: A549 lung carcinoma xenograft model; format: in vivo, CB-17 SCID mice; conditions: cisplatin 5 mg/kg IP (positive control)
Protocol: The A549 cell line was derived from explant culture of alveolar carcinoma tissue from a person. The cells were grown in Ham's F12-K tissue culture media with 10% fetal calf serum and 1% penicillin/streptomycin. Cells were routinely trypsinized and passaged 1:10. Thirty-two (32) female CB-17 SCID mice (Charles River Labs strain code 236), aged 5 to 6 weeks were used with a mean pre-treatment body weight of 16.3 grams. Mice were divided into four (4) groups of eight (8) prior to the initiation of treatment based on tumor volume. On the day of implantation, cells were washed in PBS, trypsinized and resuspended in complete media to a density of 2×10^7 cells/mL prior to being mixed with an equal volume of Matrigel. This mixture was then inoculated subcutaneously into mice in a volume of 0.1 mL using a 23 G needle.
Animal weights and condition were recorded daily, and tumors were measured on Mondays, Wednesdays and Fridays with micro-calipers, and tumor volume was calculated as (length×width×width)/2.
Animals with weight loss of more than 20% of their starting weight were euthanized. Mice with weight loss of more than 15% of their starting weight were not treated again until weight loss recovered to less than 5% of their starting weight. Any animals with a tumor volume of more than 1500 mm^3 were euthanized.
Dosing solutions were prepared fresh on each day of dosing. Compound 2 was supplied as a lyophilized powder containing 69.61% Compound 2 with the balance made up of Pluronic F-68 and PVP K29/32. This was prepared by dissolving the lyophilized powder in sterile water. Cisplatin was dissolved at 5 mg/mL in DMSO and diluted 1:10 in sterile water for injection. All test articles were administered in a volume of 0.1 mL/10 g body weight.
Statistical differences between treatment groups were determined using Mann-Whitney Rank Sum or ANOVA tests with a critical value of 0.05.

T1 sequence (O14980 whole entry): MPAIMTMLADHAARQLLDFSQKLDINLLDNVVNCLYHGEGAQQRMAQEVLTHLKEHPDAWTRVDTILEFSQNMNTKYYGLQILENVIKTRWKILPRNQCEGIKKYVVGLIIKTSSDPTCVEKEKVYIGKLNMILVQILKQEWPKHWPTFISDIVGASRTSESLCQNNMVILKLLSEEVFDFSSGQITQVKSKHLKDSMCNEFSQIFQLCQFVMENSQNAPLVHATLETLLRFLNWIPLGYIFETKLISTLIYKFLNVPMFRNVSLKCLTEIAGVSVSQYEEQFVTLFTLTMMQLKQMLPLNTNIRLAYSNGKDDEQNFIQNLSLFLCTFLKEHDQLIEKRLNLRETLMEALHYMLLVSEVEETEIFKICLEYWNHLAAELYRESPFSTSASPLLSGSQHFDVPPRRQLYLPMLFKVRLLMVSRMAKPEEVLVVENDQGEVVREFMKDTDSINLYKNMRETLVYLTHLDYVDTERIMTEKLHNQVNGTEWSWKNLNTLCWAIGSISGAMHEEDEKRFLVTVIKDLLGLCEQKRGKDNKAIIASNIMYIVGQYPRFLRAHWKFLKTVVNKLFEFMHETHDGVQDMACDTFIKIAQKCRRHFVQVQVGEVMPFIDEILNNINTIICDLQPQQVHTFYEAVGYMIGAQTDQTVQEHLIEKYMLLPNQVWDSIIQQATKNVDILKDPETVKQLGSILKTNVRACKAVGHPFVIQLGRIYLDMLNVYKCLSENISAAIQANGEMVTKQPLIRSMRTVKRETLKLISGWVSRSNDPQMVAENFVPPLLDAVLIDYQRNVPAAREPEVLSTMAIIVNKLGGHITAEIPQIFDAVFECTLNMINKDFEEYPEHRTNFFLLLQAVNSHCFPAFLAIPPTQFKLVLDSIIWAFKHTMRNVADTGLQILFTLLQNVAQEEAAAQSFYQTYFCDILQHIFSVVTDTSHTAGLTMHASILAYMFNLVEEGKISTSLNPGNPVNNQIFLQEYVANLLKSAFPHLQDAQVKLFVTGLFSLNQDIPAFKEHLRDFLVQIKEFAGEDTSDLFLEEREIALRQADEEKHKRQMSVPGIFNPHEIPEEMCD

| SMILES | IC50 (CRM1) [nM] | IC50 at 72 h [1] [nM] | AUC(0-inf) [3] [ng·h/mL] | also measured |
| --- | --- | --- | --- | --- |
| O=C(/C=C\n1cnc(-c2cc(C(F)(F)F)cc(C(F)(F)F)c2)n1)N1CC(F)(F)C1 [Compound X-3, reference compound] | < 1000 | < 1000 | 12300 | AUC(0-inf) [2]: 12300 ng·h/mL |
| CC(C)OC(=O)/C=C\n1cnc(-c2cc(OC(C)C)cc(C(F)(F)F)c2)n1 [Compound X-2] | < 1000 | < 1000 | 68.3 | B:P [4]: moderate brain to plasma ratio; Kp at 2 h ([4]; rat, brain and plasma): 1.27 |
| O=P1(N(CCCl)CCCl)NCCCO1 (stereo not drawn) [cyclophosphamide, reference compound] |  |  |  | Rate of reduction of DAI, % change from 1st dose administration (IMQ-induced psoriasis; Day 7, pre-IMQ/drug administration readings): 0.0%; Rate of reduction of DAI, % change from 1st dose administration (IMQ-induced psoriasis; Day 10, 4 hr. post-IMQ/drug administration readings): −86.0% |
| N.N.[Cl][Pt][Cl] [cisplatin, reference compound] |  |  |  | tumor volume AUC compared to vehicle control (one-way ANOVA) (A549 xenograft tumors): no statistically significant reduction in tumor growth |
